According to paper PMC5053523, “In Vitro Antibacterial Activity of Rhodanine Derivatives against Pathogenic Clinical Isolates” (PLoS ONE, 2016):
Converted amounts (≈) assume the structure as drawn. Like-named read-outs stand apart in the source and are kept apart here.

Columns and labels:
[1] = test system: vancomycin resistant enterococci (VRE); assay: Broth microdilution MIC50/MIC90, VRE panel; format: cell-based; details: Enterococcus, 10 VRE strains; for MIC90: VRE, read-out: MIC 90; for MIC50: read-out: MIC 50
Bacillus anthracis = assay: microbe, parasite or virus in culture; format: cell-based
B. licheniformis = assay: Broth microdilution MIC/MBC, B. licheniformis; format: cell-based; details: Bacillus licheniformis; for MBC: read-out: MBC; for MIC: read-out: MIC
Bacillus Strains = assay: Broth microdilution MIC50/MIC90 and MIC range, Bacillus strains panel; format: cell-based, Bacillus spp.; details: 10 Bacillus strains
From the text: The broth microdilution technique was used, followed by subculturing on agar plates that were rhodanine—free. […] The MICs reported represent the lowest concentration of each compound necessary to inhibit bacterial growth and the MBCs represent the lowest concentration required to reduce the initial bacterial inoculum by ≥ 99.9%.

Clostridium difficile = assay: MIC against Clostridium difficile, anaerobic broth dilution; format: cell-based; details: Clostridioides difficile
Method: Clinical isolates of C. difficile were cultured on anaerobic blood agar and incubated anaerobically using container gas pack system at 37° C for 48 hours. The colonies were then suspended in pre-reduced phosphate buffered saline (PBS) and adjusted to 0.5 McFarland standard then diluted 1:300 in pre-reduced Supplemented Brain Heart Infusion broth. The bacterial suspension was then transferred to each well of 96-well plates, the drugs were added to the first row of wells in the required concentrations and serially diluted along the plates. The plates were incubated again anaerobically using container gas pack system at 37° C for 48 hours. The (MIC) recorded was the lowest concentration of the drug showing no visible growth of the bacteria.

P. aeruginosa = assay: Broth microdilution MIC, P. aeruginosa; format: cell-based; details: Pseudomonas aeruginosa
K. pneumoniae = assay: Broth microdilution MIC, K. pneumoniae; format: cell-based
Candida albicans = assay: MIC against Candida albicans; format: cell-based; details: table prints none, read-out: MIC
MRSA USA300 = assay: MIC against MRSA USA300 with and without 4% human serum albumin; format: cell-based, Staphylococcus aureus; details: Staphylococcus aureus, read-out: MIC against MRSA USA300
Summary of the method: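 MIC measured in tryptic soy broth spiked with 4% HSA and without it, using CLSI broth microdilution on MRSA USA300. Value reported is the lowest concentration preventing bacterial growth.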

Escherichia coli O157:H7 [2] = assay: MIC with/without sub-MIC colistin, Escherichia coli O157:H7; format: cell-based
Method: (§1) The MIC of the rhodanines and control antibiotics, in the presence of a sub-inhibitory concentration of colistin or polymixin B nonapeptide (PMBN), against Gram-negative bacteria was evaluated as described before. The antibacterial activity of the rhodanines was further investigated against E. coli SM1411Δ acrAB, a strain that is deficient in the multidrug-resistant AcrAB efflux pump, as described before.

Salmonella Typhimurium [3] = assay: MIC with/without sub-MIC colistin, Salmonella Typhimurium; format: cell-based
Method: as §1

Pseudomonas aeruginosa [4] = assay: MIC with/without sub-MIC colistin, Pseudomonas aeruginosa; format: cell-based
Method: as §1

Acinetobacter baumannii = assay: MIC with/without PMBN, Acinetobacter baumannii; format: cell-based
Method: as §1

Escherichia coli O157:H7 [5] = assay: MIC with/without PMBN, Escherichia coli O157:H7; format: cell-based
Method: as §1

Salmonella Typhimurium [6] = assay: MIC with/without PMBN, Salmonella Typhimurium; format: cell-based
Method: as §1

Klebsiella pneumoniae = assay: MIC with/without PMBN, Klebsiella pneumoniae; format: cell-based
Method: as §1

Pseudomonas aeruginosa [7] = assay: MIC with/without PMBN, Pseudomonas aeruginosa; format: cell-based
Method: as §1

[8] = NCIB9375, B. licheniformis Gibson 46 (NCIB 9375) NR-2494
[9] = NRS712, B. licheniformis NRS 712 NR-2499
[10] = Escherichia coli O157:H7 ATCC 35150, colistin (+) […], read-out: MIC
[11] = Escherichia coli O157:H7 ATCC 700728, colistin (+) […], read-out: MIC
[12] = Salmonella Typhimurium ATCC 700720, colistin (+) […], read-out: MIC
[13] = Salmonella enterica, ATCC 700720 / TYPHIMURIUM
[14] = Pseudomonas aeruginosa ATCC 921, colistin (+) […], read-out: MIC
[15] = Pseudomonas aeruginosa, ATCC921
[16] = Acinetobacter baumannii ATCC BAA747, PMBN (+) 4 μg/mL, read-out: MIC
[17] = Acinetobacter baumannii ATCC BAA19606, PMBN (+) 4 μg/mL, read-out: MIC
[18] = Acinetobacter baumannii, ATCCBAA747
[19] = Acinetobacter baumannii, ATCCBAA19606
[20] = Escherichia coli O157:H7 ATCC 35150, PMBN (+) 4 μg/mL, read-out: MIC
[21] = Escherichia coli O157:H7 ATCC 700728, PMBN (+) 4 μg/mL, read-out: MIC
[22] = Salmonella Typhimurium ATCC 700720, PMBN (+) 4 μg/mL, read-out: MIC
[23] = Klebsiella pneumoniae ATCC BAA 1706, PMBN (+) 4 μg/mL
[24] = Klebsiella pneumoniae ATCC BAA 2146, PMBN (+) 4 μg/mL
[25] = Pseudomonas aeruginosa ATCC 9721, PMBN (+) 4 μg/mL, read-out: MIC
[26] = Pseudomonas aeruginosa, ATCC9721

O=C(O)[C@H](Cc1ccccc1)N1C(=O)/C(=C/c2cccc(Oc3ccc(Cl)c(Cl)c3)c2)SC1=S [Rh 1]
MIC90 [1]: 8 µM (≈ 4.24 µg/mL) | MIC50 [1]: 8 µM (≈ 4.24 µg/mL) | MBC (Bacillus anthracis; Bacillus anthracis AMES35): 2 µM (≈ 1.06 µg/mL) | MIC (Bacillus anthracis; Bacillus anthracis AMES35): 2 µM (≈ 1.06 µg/mL) | MBC (Bacillus anthracis; Bacillus anthracis UM23): 2 µM (≈ 1.06 µg/mL) | MIC (Bacillus anthracis; Bacillus anthracis UM23): 2 µM (≈ 1.06 µg/mL) | MBC (Bacillus anthracis; Bacillus anthracis Weybridge): 2 µM (≈ 1.06 µg/mL) | MIC (Bacillus anthracis; Bacillus anthracis Weybridge): 2 µM (≈ 1.06 µg/mL) | MBC (B. licheniformis; [8]): 2 µM (≈ 1.06 µg/mL) | MIC (B. licheniformis; [8]): 2 µM (≈ 1.06 µg/mL) | MBC (B. licheniformis; [9]): 4 µM (≈ 2.12 µg/mL) | MIC (B. licheniformis; [9]): 4 µM (≈ 2.12 µg/mL) | MIC50 (Bacillus Strains): 4 µM (≈ 2.12 µg/mL) | MIC90 (Bacillus Strains): 4 µM (≈ 2.12 µg/mL) | MIC (Clostridium difficile; C. difficile HM-88): 4 µM (≈ 2.12 µg/mL) | MIC (Clostridium difficile; C. difficile HM-745): 2 µM (≈ 1.06 µg/mL) | MIC (Clostridium difficile; C. difficile HM-746): 4 µM (≈ 2.12 µg/mL) | MIC (Clostridium difficile; C. difficile Isolate-1 NR-13427): 4 µM (≈ 2.12 µg/mL) | MIC (Clostridium difficile; C. difficile Toxigenic Strain P8 NR-32888): 4 µM (≈ 2.12 µg/mL) | MIC (P. aeruginosa; ATCC9721): > 128 µM | MIC (P. aeruginosa; ATCC15442): > 128 µM | MIC (K. pneumoniae; K. pneumoniae NR-15417): >128 µM | MIC (K. pneumoniae; Klebsiella pneumoniae): > 128 µM | MIC (Candida albicans; ATCC10231, C. albicans ATCC 10231, unit from abstract): > 64 µM | MIC (Candida albicans; C. albicans NR 29434, unit from abstract): > 64 µM | MIC (Candida albicans; C. albicans NR 29435, unit from abstract): > 64 µM | MIC (Candida albicans; C. albicans NR29437, unit from abstract): > 64 µM | MIC (Candida albicans; C. albicans NR29438, unit from abstract): > 64 µM | MIC (Candida albicans; C. albicans NR 29446, unit from abstract): > 64 µM | MIC (Candida albicans; C. albicans NR 29448, unit from abstract): > 64 µM | MIC (Candida albicans; C. albicans NR 29449, unit from abstract): > 64 µM | MIC (Candida albicans; C. albicans NR 29453, unit from abstract): > 64 µM | MIC (Candida albicans; C. albicans NR 294436, unit from abstract): > 64 µM | MIC (MRSA USA300; 24 h, Media TSB + 4% HSA): > 64 µM | MIC (MRSA USA300; Media TSB): 8 µM (≈ 4.24 µg/mL) | MIC (Escherichia coli O157:H7 [2]; [10]): >64 µM | MIC (Escherichia coli O157:H7 [2]; [11]): >64 µM | MIC (Escherichia coli O157:H7 [2]; Escherichia coli, ATCC35150): > 128 µM | MIC (Escherichia coli O157:H7 [2]; Escherichia coli, ATCC700728): > 128 µM | MIC (Salmonella Typhimurium [3]; [12]): >64 µM | MIC (Salmonella Typhimurium [3]; [13]): > 128 µM | MIC (Pseudomonas aeruginosa [4]; [14]): >64 µM | MIC (Pseudomonas aeruginosa [4]; [15]): > 128 µM | MIC (Acinetobacter baumannii; [16]): >64 µM | MIC (Acinetobacter baumannii; [17]): >64 µM | MIC (Acinetobacter baumannii; [18]): > 128 µM | MIC (Acinetobacter baumannii; [19]): > 128 µM | MIC (Escherichia coli O157:H7 [5]; [20]): 8 µM (≈ 4.24 µg/mL) | MIC (Escherichia coli O157:H7 [5]; [21]): >64 µM | MIC (Escherichia coli O157:H7 [5]; Escherichia coli, ATCC35150): > 256 µM | MIC (Escherichia coli O157:H7 [5]; Escherichia coli, ATCC700728): > 128 µM | MIC (Salmonella Typhimurium [6]; [22]): >128 µM | MIC (Salmonella Typhimurium [6]; [13]): > 128 µM | MIC (Klebsiella pneumoniae; [23]): >64 µM | MIC (Klebsiella pneumoniae; [24]): >64 µM | MIC (Klebsiella pneumoniae; Klebsiella pneumoniae, BAA1706): > 128 µM | MIC (Klebsiella pneumoniae; Klebsiella pneumoniae, BAA2146): > 128 µM | MIC (Pseudomonas aeruginosa [7]; [25]): >64 µM | MIC (Pseudomonas aeruginosa [7]; [26]): > 128 µM

CC(=O)NC[C@H]1CN(c2ccc(N3CCOCC3)c(F)c2)C(=O)O1 [Linezolid, linezolid, reference compound]
MIC90 [1]: 2 µM (≈ 0.675 µg/mL) | MIC50 [1]: 2 µM (≈ 0.675 µg/mL) | MBC (B. licheniformis; [8]): 2 µM (≈ 0.675 µg/mL) | MIC (B. licheniformis; [8]): 1 µM (≈ 0.337 µg/mL) | MBC (B. licheniformis; [9]): 4 µM (≈ 1.35 µg/mL) | MIC (B. licheniformis; [9]): 2 µM (≈ 0.675 µg/mL) | MIC50 (Bacillus Strains): 1 µM (≈ 0.337 µg/mL) | MIC90 (Bacillus Strains): 2 µM (≈ 0.675 µg/mL) | MIC (Escherichia coli O157:H7 [2]; [10]): ≤0.5 µM | MIC (Escherichia coli O157:H7 [2]; [11]): 4 µM (≈ 1.35 µg/mL) | MIC (Escherichia coli O157:H7 [2]; Escherichia coli, ATCC35150): > 128 µM | MIC (Escherichia coli O157:H7 [2]; Escherichia coli, ATCC700728): > 128 µM | MIC (Salmonella Typhimurium [3]; [12]): >64 µM | MIC (Salmonella Typhimurium [3]; [13]): > 128 µM | MIC (Pseudomonas aeruginosa [4]; [14]): 64 µM (≈ 21.6 µg/mL) | MIC (Pseudomonas aeruginosa [4]; [15]): > 128 µM | MIC (Acinetobacter baumannii; [16]): >64 µM | MIC (Acinetobacter baumannii; [17]): >64 µM | MIC (Acinetobacter baumannii; [18]): > 128 µM | MIC (Acinetobacter baumannii; [19]): > 128 µM | MIC (Escherichia coli O157:H7 [5]; [20]): >256 µM | MIC (Escherichia coli O157:H7 [5]; [21]): 128 µM (≈ 43.2 µg/mL) | MIC (Escherichia coli O157:H7 [5]; Escherichia coli, ATCC35150): > 256 µM | MIC (Escherichia coli O157:H7 [5]; Escherichia coli, ATCC700728): > 128 µM | MIC (Salmonella Typhimurium [6]; [22]): 64 µM (≈ 21.6 µg/mL) | MIC (Salmonella Typhimurium [6]; [13]): > 128 µM | MIC (Klebsiella pneumoniae; [23]): >64 µM | MIC (Klebsiella pneumoniae; [24]): >64 µM | MIC (Klebsiella pneumoniae; Klebsiella pneumoniae, BAA1706): > 128 µM | MIC (Klebsiella pneumoniae; Klebsiella pneumoniae, BAA2146): > 128 µM | MIC (Pseudomonas aeruginosa [7]; [25]): 16 µM (≈ 5.4 µg/mL) | MIC (Pseudomonas aeruginosa [7]; [26]): > 128 µM
